ChEMBL document CHEMBL3407427, “Discovery of efficacious Pseudomonas aeruginosa-targeted siderophore-conjugated monocarbams by application of a semi-mechanistic pharmacokinetic/pharmacodynamic model” (J Med Chem, 2015)
In brackets after ≈: the same amount, converted by molar mass.

How the values were obtained:
[1] = Half life in PBS buffer in pH 7.4 by UPLC analysis; assay type: ADME
Pseudomonas aeruginosa [2] = assay: Antimicrobial activity against MexABCDXY-deficient Pseudomonas aeruginosa PAO1 ARC546 by broth microdilution method; assay type: functional
[3] = Percentage unbound in human plasma at 10 uM after 16 hrs by LC-MS/MS analysis
Pseudomonas aeruginosa [4] = assay: Antimicrobial activity against Pseudomonas aeruginosa PAO1 ARC545 by broth microdilution method; assay type: functional
Pseudomonas aeruginosa [5] = assay: Inhibition of Pseudomonas aeruginosa PBP3 acylation activity by BOCILLIN FL-based assay
[6] = Plasma protein binding in Wistar Han rat as percentage unbound
[7] = Volume of distribution at steady state in Wistar Han rat at 1 mg/kg, iv infusion; assay type: ADME, organism-based; parameters: dose 1 mg/kg, route intravenous; conditions: in vivo, read-out: Vdss
Pseudomonas aeruginosa [8] = assay: Antimicrobial activity against Pseudomonas aeruginosa by broth microdilution method; assay type: functional
[9] = Clearance in Wistar Han rat at 1 mg/kg, iv infusion; assay type: ADME, organism-based; parameters: dose 1 mg/kg, route intravenous; conditions: in vivo
Acinetobacter baumannii = assay: Antimicrobial activity against Acinetobacter baumannii by broth microdilution method; assay type: functional
Klebsiella pneumoniae = assay: Antimicrobial activity against Klebsiella pneumoniae by broth microdilution method; assay type: functional
Escherichia coli = assay: Antimicrobial activity against Escherichia coli by broth microdilution method; assay type: functional
[10] = Half life in Wistar Han rat at 1 mg/kg, iv infusion; assay type: ADME, organism-based; parameters: dose 1 mg/kg, route intravenous; conditions: in vivo

| half-life [1] [h] | MIC (Pseudomonas aeruginosa [2]) [µg/mL] | fraction unbound at 16 h, 10 µM [3] | MIC (Pseudomonas aeruginosa [4]) [µg/mL] | Kinact (Pseudomonas aeruginosa [5]) | fraction unbound [6] | Vd [7] [L/kg] | clearance [9] [mL/min/kg] | half-life [10] [h] | SMILES | MIC90 (Pseudomonas aeruginosa [8]) [µg/mL] | MIC90 (Acinetobacter baumannii) [µg/mL] | MIC90 (Klebsiella pneumoniae) [µg/mL] | MIC90 (Escherichia coli) [µg/mL] |
| --- | --- | --- | --- | --- | --- | --- | --- | --- | --- | --- | --- | --- | --- |
| 30 | 1 (≈ 1.38 µM) | 0.26 | 16 (≈ 22 µM) | 2.4 ×10⁴ /M/s | – | – | – | – | C[C@H]1[C@H](NC(=O)/C(=N\OC(C)(C)C(=O)O)c2csc(N)n2)C(=O)N1C(=O)NS(=O)(=O)N1C[C@@H](NC(=O)NCc2cc(=O)c(O)c[nH]2)CC1=O | – | – | – | – |
| 51 | 0.5 (≈ 0.638 µM) | 0.18 | 4 (≈ 5.1 µM) | 9.4 ×10³ /M/s | – | – | – | – | C[C@H]1[C@H](NC(=O)/C(=N\OC(C)(C)C(=O)O)c2csc(N)n2)C(=O)N1C(=O)NS(=O)(=O)N1C[C@@H](NC(=O)[C@H](CN)NC(=O)c2cc(=O)c(O)c[nH]2)CC1=O | – | – | – | – |
| 103 | 1 (≈ 1.7 µM) | 0.23 | 16 (≈ 27.3 µM) | 1.3 ×10⁴ /M/s | – | – | – | – | C[C@H]1[C@H](NC(=O)/C(=N\OC(C)(C)C(=O)O)c2csc(N)n2)C(=O)N1C(=O)NS(=O)(=O)Nc1cc(=O)c(O)c[nH]1 | – | – | – | – |
| > 150 | 1 (≈ 1.32 µM) | 0.23 | 8 (≈ 10.6 µM) | 8.1 ×10² /M/s | – | – | – | – | CC(C)(O/N=C(\C(=O)N[C@@H]1C(=O)N(C(=O)NS(=O)(=O)N2C[C@@H](NC(=O)NCc3cc(=O)c(O)cn3O)CC2=O)C1(C)C)c1csc(N)n1)C(=O)O | – | – | – | – |
| 19 | 0.25 (≈ 0.33 µM) | 0.27 | 0.5 (≈ 0.661 µM) | 3.1 ×10⁴ /M/s | – | – | – | – | C[C@H]1[C@H](NC(=O)/C(=N\OC(C)(C)C(=O)O)c2csc(N)n2)C(=O)N1C(=O)NS(=O)(=O)N1C[C@@H](N(C)C(=O)NCc2cc(=O)c(O)cn2O)CC1=O | – | – | – | – |
| > 150 | < 0.06 | 0.33 | 1 (≈ 1.46 µM) | 4.6 ×10⁴ /M/s | – | – | – | – | C[C@H]1[C@H](NC(=O)/C(=N\OC(C)(C)C(=O)O)c2csc(N)n2)C(=O)N1C(=O)NS(=O)(=O)N1CC[C@H](NC(=O)c2cc(=O)c(O)c[nH]2)C1 | – | – | – | – |
| > 150 | 0.25 (≈ 0.331 µM) | 0.38 | 2 (≈ 2.65 µM) | 2.4 ×10⁴ /M/s | – | – | – | – | C[C@H]1[C@H](NC(=O)/C(=N\OC(C)(C)C(=O)O)c2csc(N)n2)C(=O)N1C(=O)NS(=O)(=O)N1C[C@@H](NC(=O)CNC(=O)c2cc(=O)c(O)c[nH]2)CC1=O | – | – | – | – |
| 138 | < 0.06 | 0.04 | 0.25 (≈ 0.343 µM) | 7.2 ×10⁴ /M/s | 0.04 | 0.28 | 9 | 0.39 | C[C@H]1[C@H](NC(=O)/C(=N\OC(C)(C)C(=O)O)c2csc(N)n2)C(=O)N1C(=O)NS(=O)(=O)n1nc(-c2cc(=O)c(O)c[nH]2)n(C[C@@H](O)CO)c1=O | 0.25 (≈ 0.343 µM) | > 128 | 8 (≈ 11 µM) | 16 (≈ 22 µM) |
| > 150 | < 0.06 | 0.45 | 0.5 (≈ 0.649 µM) | 1 ×10⁵ /M/s | – | – | – | – | C[C@H]1[C@H](NC(=O)/C(=N\OC(C)(C)C(=O)O)c2csc(N)n2)C(=O)N1C(=O)NS(=O)(=O)N1C[C@@H](NC(=O)CNC(=O)c2cc(=O)c(O)cn2O)CC1=O | – | – | – | – |
| > 150 | < 0.06 | 0.08 | 0.5 (≈ 0.701 µM) | 3 ×10⁵ /M/s | – | – | – | – | C[C@H]1[C@H](NC(=O)/C(=N\OC(C)(C)C(=O)O)c2csc(N)n2)C(=O)N1C(=O)NS(=O)(=O)N1C[C@@H](NC(=O)c2cc(=O)c(O)cn2O)CC1=O | – | – | – | – |
| 87 | 0.13 (≈ 0.182 µM) | 0.26 | 4 (≈ 5.6 µM) | 3.4 ×10³ /M/s | – | – | – | – | C[C@H]1[C@H](NC(=O)/C(=N\OCC(=O)O)c2csc(N)n2)C(=O)N1C(=O)NS(=O)(=O)N1C[C@@H](NC(=O)NCc2cc(=O)c(O)cn2O)CC1=O | – | – | – | – |
| > 150 | 0.25 (≈ 0.29 µM) | 0.21 | 4 (≈ 4.65 µM) | 1.8 ×10⁴ /M/s | – | – | – | – | C[C@H]1[C@H](NC(=O)/C(=N\OC(C)(C)C(=O)O)c2csc(N)n2)C(=O)N1C(=O)NS(=O)(=O)N1C[C@@H](NC(=O)[C@H](CCS(C)(=O)=O)NC(=O)c2cc(=O)c(O)c[nH]2)CC1=O | – | – | – | – |

| SMILES | half-life [1] [h] | MIC (Pseudomonas aeruginosa [2]) [µg/mL] | fraction unbound at 16 h, 10 µM [3] | MIC (Pseudomonas aeruginosa [4]) [µg/mL] | Kinact (Pseudomonas aeruginosa [5]) | fraction unbound [6] | Vd [7] [L/kg] | clearance [9] [mL/min/kg] | half-life [10] [h] | MIC90 (Pseudomonas aeruginosa [8]) [µg/mL] | MIC90 (Acinetobacter baumannii) [µg/mL] | MIC90 (Klebsiella pneumoniae) [µg/mL] | MIC90 (Escherichia coli) [µg/mL] |
| --- | --- | --- | --- | --- | --- | --- | --- | --- | --- | --- | --- | --- | --- |
| C[C@H]1[C@H](NC(=O)/C(=N\OC(C)(C)C(=O)O)c2csc(N)n2)C(=O)N1S(=O)(=O)O [AZTREONAM] | – | 0.25 (≈ 0.574 µM) | – | 4 (≈ 9.19 µM) | – | – | – | – | – | 1020 (≈ 2350 µM) | > 512 | > 512 | > 512 |
